This note sets out measurements from the METLIN SMRT retention time set (Domingo-Almenara et al. 2019).

Structures are written as SMILES.

This data set in a line: gradient 5% acetonitrile 3 min, to 50% in 2 min, to 85% in 15 min, held 3 min, 100 µL/min. The note with it: column: Zorbax Extend-C18 2.1 x 50 mm; eluents: water / acetonitrile, 0.1% formic acid. A digest of the protocol: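 Mixtures of ~100 pure standards were chromatographed on a Zorbax Extend-C18 column (2.1 × 50 mm, 1.8 μm) at 100 μL/min using water and acetonitrile, each with 0.1% formic acid. Detection used a quadrupole time-of-flight mass spectrometer in positive and negative ionization mode, and data collection spanned 3 months. Retention time was obtained from adduct peaks picked computationally and each checked manually.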
`CC1CCC(NC(=O)C2CCN(S(=O)(=O)c3ccc4c(c3)sc(=O)n4C)CC2)CC1` (centres undefined) yielded an RP-LC retention time of 896 s.

For the compound `O=c1c(-c2ccccc2)c(N2CCN(c3ccccn3)CC2)c1=O`, the RP-LC retention time worked out at 620 s.

Turning to `COc1ccc(N2CCN(c3cc(SCC(=O)Nc4cc(F)ccc4C)ncn3)CC2)cc1`, the RP-LC retention time was 1040 s.

On to `CCNS(=O)(=O)c1cccnc1Nc1ccc(F)c(Cl)c1`, for which the RP-LC retention time worked out at 1040 s.

In the case of `Cc1ccc(S(=O)(=O)c2cnc(N3CCN(Cc4ccc5c(c4)OCO5)CC3)nc2N)cc1`, the RP-LC retention time amounted to 679 s.

`CCOc1ccc(-c2noc(Cn3ccn4nc(-c5ccc(F)cc5)cc4c3=O)n2)cc1OC`: the RP-LC retention time stood at 819 s.

In turn, `CCCc1cc(N2CCN(C(=O)C3CC3)CC2)nc2nncn12` displayed an RP-LC retention time of 586 s.

As for `Cc1ccc(/C=C/c2nc(-c3ccc4oc(C)nc4c3)no2)o1`, the RP-LC retention time was 1130 s.

Regarding `Cc1cc(C)c(C)c(S(=O)(=O)N2CCC3(CCN(c4cccnc4)C3)C2)c1C` (centres undefined), the RP-LC retention time amounted to 762 s.

Take `Nc1nc(=O)n(C2CS[C@H](CO)O2)cc1F` (some centres undefined): the RP-LC retention time was found to be 571 s.

`CCc1sc(NC(=O)CS(=O)(=O)c2ccc(C)cc2)nc1-c1ccccc1` displayed an RP-LC retention time of 1040 s.

In turn, `Cc1cnc(C(=O)N2[C@H]3CC[C@@H]2c2cnc(-c4ccc(F)cc4)nc2C3)cn1` returned an RP-LC retention time of 874 s.

With `CCCS(=O)(=O)N1CC(n2cc(C(=O)NCC3CC3)nn2)C1`, the RP-LC retention time was 722 s.

`CCN1CCN(C(=O)C2CCCN(S(=O)(=O)c3cc(-c4noc(C)n4)cs3)C2)CC1` (centres undefined) had an RP-LC retention time of 612 s.

Compound `COc1c(C(=O)NC2CCCC2)sc2cccc(F)c12` gave an RP-LC retention time of 1100 s.

In turn, `O=C(Cn1nc2c(cc1=O)CCCCC2)Nc1nc(-c2ccccn2)cs1` yielded an RP-LC retention time of 655 s.

Take `COC(=O)c1cccc(NC(=O)N2CCC(c3nc(C(=O)N(C)C)c(C)o3)CC2)c1`: the RP-LC retention time came out at 972 s.

Turning to `O=C(NCCc1ccccc1)Nc1cnn(-c2ncc(N3CCCC3)cn2)c1`, the RP-LC retention time was 778 s.

With `CCOc1ccc(CNC(=O)C2CCN(S(=O)(=O)N(CC(C)C)CC(C)C)CC2)cc1OC`, the RP-LC retention time worked out at 1040 s.

`O=C(c1ccncc1)N1CC(N(Cc2ccncc2)CC2CC2)C1` came in with an RP-LC retention time of 519 s.

`COC(=O)C(Cc1c[nH]c2ccccc12)NC(=O)c1ccc(Br)cc1` (centres undefined) displayed an RP-LC retention time of 931 s.

In turn, `Nc1nc(N2CCOCC2)nc2ccccc12` gave an RP-LC retention time of 572 s.

`O=C(NCCCN1CCCCC1)C1CCCN(c2cnc3nccnc3c2)C1` (centres undefined) came in with an RP-LC retention time of 560 s.

Compound `Cc1ccc2c(c1)N(S(C)(=O)=O)CCC(C(=O)Nc1ccc(Cl)cc1C)O2` (centres undefined) had an RP-LC retention time of 1000 s.

For the compound `O=C(Cn1nc(C(=O)N2CCCC2)c2ccccc21)NCc1cccs1`, the RP-LC retention time worked out at 753 s.

Turning to `CCN1C(=O)COc2ccc(-c3nc(NC(=O)CCc4ccccc4)sc3C)cc21`, the RP-LC retention time worked out at 1040 s.

Turning to `COc1cc(C(=O)N2CCC3(CC2)NC(=O)c2ccc(Cl)cc2N3)cc(OC)c1OC`, the RP-LC retention time came to 721 s.

As for `COCCC1CCN(C(=O)COc2ccc(OC)cc2)CC1`, the RP-LC retention time stood at 768 s.

In turn, `CCc1ccc(S(=O)(=O)N2CCC(C)(C(=O)NCc3ccccc3C)CC2)cc1` registered an RP-LC retention time of 1020 s.

On to `CC(C)NC(=O)N1CCCC1c1noc(CCC(=O)NC2CC2)n1` (centres undefined), for which the RP-LC retention time was found to be 603 s.

`Cc1ccnc(NC(=O)Cn2ccc3ccc(-c4nnc(C)o4)cc32)c1` yielded an RP-LC retention time of 674 s.

On to `COc1cccc(-c2nc(C3CCN(C(=O)c4cc5ccccc5[nH]4)CC3)no2)c1`, for which the RP-LC retention time was 1040 s.

In the case of `COc1ccc(Nc2c(C(=O)N3CCCCC3C)cnc3nc(C)ccc23)cc1OC` (centres undefined), the RP-LC retention time stood at 598 s.

`CCOc1cc(=O)c(C(=O)N2CCC(C(N)=O)CC2)nn1-c1ccc(F)c(F)c1` yielded an RP-LC retention time of 625 s.

For `O=S(=O)(c1ccc2nc(N3CCN(C4CCCCC4)CC3)cnc2c1)N1CCCCC1`, the RP-LC retention time stood at 705 s.

The compound `COc1ccccc1N1CCN(c2nc3c(c(Nc4ccccc4)n2)C(=O)CCC3)CC1` came in with an RP-LC retention time of 1270 s.

Consider `O=C(NCC1CCCCC1)c1ccc2c(c1)nc1n2CCN(C2CCCCC2)C1=O`, for which the RP-LC retention time amounted to 872 s.

Take `O=C(c1ccc(=O)oc1)N1CCN(Cc2nc(-c3ccccc3)cs2)CC1`: the RP-LC retention time was 637 s.

The compound `Cc1ccc2c(c1)N(C(=O)Cn1cnc(-c3nc(-c4ccccc4)cs3)c1)CCO2` returned an RP-LC retention time of 954 s.

`Cn1ncc2c3ccccc3n(CCCC(=O)NCCc3cccs3)c2c1=O` registered an RP-LC retention time of 834 s.

In the case of `COc1ccccc1Cc1nc(-c2cn(-c3ccc(F)cc3)nn2)no1`, the RP-LC retention time was 1020 s.

`Cn1c(CCNC(=O)c2cn3ccccc3n2)nc2ccccc21`: the RP-LC retention time came to 556 s.

The compound `CC1Cc2ccccc2N1C(=O)CCC(=O)N1CCN(c2cc(=O)n(C(C)C)c(=O)n2C(C)C)CC1` (centres undefined) displayed an RP-LC retention time of 890 s.

In the case of `Cc1ccc2c(Nc3ccc(C)c(C)c3)c(C(=O)N3CCC(C)CC3)cnc2n1`, the RP-LC retention time is 681 s.

On to `CN(Cc1ccccc1)C(=O)CSc1nnc(-c2ccc(Cl)cc2)o1`, for which the RP-LC retention time stood at 1030 s.

For the compound `Cn1cc(C(=O)NCCn2ncccc2=O)nn1`, the RP-LC retention time stood at 520 s.

`Cc1ccc2c(c1)C(=O)NC1(CCN(C(=O)c3ccc4c(c3)OCO4)CC1)N2C` showed an RP-LC retention time of 721 s.

Compound `Cc1cc(C)cc(C(=O)N2CC=C(C(=O)NC3CC3)CC2)c1` returned an RP-LC retention time of 755 s.

As to `CC1CC(=O)N(CC(=O)Nc2ccc(Cl)cc2)c2ccccc2S1(=O)=O` (centres undefined), the RP-LC retention time turned out to be 843 s.

Take `COc1cccc(N2CCN(C(=O)C3CCN(C(=O)C4Sc5ccccc5NC4=O)CC3)CC2)c1` (centres undefined): the RP-LC retention time came out at 709 s.

For `COc1ccc(-c2nc3ncccn3c2Nc2c(C)cccc2C)cc1`, the RP-LC retention time came to 765 s.

`Cc1ccc(NC(=O)C2CCN(c3nnc4ccc(Cl)cn34)CC2)c(F)c1` came in with an RP-LC retention time of 749 s.

For `CC(C)OCCCNC(=O)c1cc2c(n(-c3ccc(F)cc3)c1=O)CCCC2=O`, the RP-LC retention time came out at 794 s.

With `CCCN(CC1CCOC1)S(=O)(=O)c1cccc(F)c1` (centres undefined), the RP-LC retention time stood at 850 s.

Regarding `CC1Oc2ccc(-c3csc(NC(=O)c4ccco4)n3)cc2NC1=O` (centres undefined), the RP-LC retention time amounted to 783 s.

Compound `CCOc1ccc(NC(=O)N2CCN(c3cc(C)nc(N4CCOCC4)n3)CC2)cc1` gave an RP-LC retention time of 624 s.

For the compound `O=C(c1ccc(Cn2c(=O)c3cccn3c3cccnc32)o1)N1CCN(c2ccccn2)CC1`, the RP-LC retention time turned out to be 615 s.

The compound `Cc1ccc(Nc2cc(C)nc(N3CCN(C(=O)Nc4ccccc4)CC3)n2)cc1` gave an RP-LC retention time of 738 s.

For the compound `COc1ccc(N2C(=O)C3N=NN(Cc4nc(-c5cccc(C)c5)no4)C3C2=O)cc1OC` (centres undefined), the RP-LC retention time was 911 s.
